Data taken from US10451536B2, “Method and apparatus for multi-parameter data analysis” (GE HEALTHCARE UK LIMITED, priority 2009, dated 2019).

Test system: CHO-K1 cells
Experiment: High-content screening of nuclear morphology in CHO-K1 cells treated with Mitomycin C, with KS distance analysis
Format: cell-based
Description: CHO-K1 cells were seeded into a GE Healthcare 96 well MatriPlate at 6000 cells/well in Ham's F12 media supplemented with 5% EBS and incubated under standard tissue culture conditions for 24 hours. Mitomycin C (MMC) solutions were added in culture media to provide final concentrations in the assay of […] and cells incubated for a further 48 hours. Media was removed from wells and cells washed once with […] phosphate buffered saline (PBS), followed by fixation in ethanol for 30 minutes at room temperature. Nuclei were stained with […] HOECHST™ 33342 (Sigma) at room temperature for 15 minutes and cells washed with […] PBS.
Cells were imaged by a GE Healthcare INCELL ANALYZER 1000™ using v3.5 acquisition software (available from GE Healthcare) with a 20× objective. Images were acquired using on-line cell counting to acquire a minimum of 1000 cells/well. Images were analysed for nuclear area, length, perimeter and weighted moment of inertia (WMOI) using GE INCELL INVESTIGATOR™ software (available from GE Healthcare).
Four nuclear morphology parameters were abstracted from images using automated image analysis and data from replicate samples exposed to the same concentrations of MMC combined to yield population distribution histograms for each of the four parameters as shown in FIGS. 7 to 10. In each of FIGS. 7 to 10 the data in panel 1 is from control cells, and the data in panels 2-12 from MMC treated cells across the range of 0.01 μM-10 μM MMC.
KS distance analysis of the data using intra-sample measurements (i.e. calculation of the KS distance between cell data in the absence of MMC and cell data at a given concentration of MMC across the range 0.01 μM-10 μM) was performed and the resulting data shown in FIG. 11.
Inter-sample KS distances were calculated for all six possible parameter pairings (Area-Length; Area-WMOI; Length-WMOI; Area-Perimeter; Length-Perimeter; Perimeter-WMOI) by calculation of KS distance between data distributions for two parameters at the same MMC concentration. In order to perform KS distance measures on the different parameters of which had variant dimensions, parameter values were normalized (Pnorm) to a range from 0-1 using the function: […]

[1] = CHO-K1 cells, same MMC concentration, normalized parameters, FIG. 12

## CO[C@@]12[C@H](COC(N)=O)C3=C(C(=O)C(C)=C(N)C3=O)N1C[C@@H]1N[C@@H]12 [MMC, Mitomycin C]
CHO-K1 cells, 0, 0.16 and 2.5 μM MMC, 48 hours, HOECHST 33342 nuclear stain, FIG. 6
  Nuclear size, shape and morphology in representative HCS images: Changes in nuclear size, shape and morphology are clearly visible
CHO-K1 cells, 0.01 μM-10 μM MMC, FIG. 11
  Intra-sample KS distance relative to untreated cells (nuclear area, length, perimeter, WMOI): clear dose-dependent increase in KS distances for all four measured parameters
CHO-K1 cells, 0.16 μM MMC, FIG. 6 image B inset
  Micronuclei formation (higher magnification view): nuclei with associated micronuclei arising from clastogenic DNA damage
[1]
  Inter-sample KS distance Area and perimeter (A-W): low KS inter-sample distance at low and high MMC concentrations with an increase in KS distance at intermediate concentrations
  Inter-sample KS distance Area-Length (A-L): constant low KS distance across the entire MMC concentration range
  Inter-sample KS distance Length-WMOI (L-W): constant high KS distance over most of the MMC concentration range
  Inter-sample KS distance Perimeter-WMOI (P-W): decreases with MMC concentration
